The target of test [1] is T1, Ankyrin repeat and protein kinase domain-containing protein 1 (Homo sapiens) (UniProt Q8NFD2).
T1 sequence (whole entry): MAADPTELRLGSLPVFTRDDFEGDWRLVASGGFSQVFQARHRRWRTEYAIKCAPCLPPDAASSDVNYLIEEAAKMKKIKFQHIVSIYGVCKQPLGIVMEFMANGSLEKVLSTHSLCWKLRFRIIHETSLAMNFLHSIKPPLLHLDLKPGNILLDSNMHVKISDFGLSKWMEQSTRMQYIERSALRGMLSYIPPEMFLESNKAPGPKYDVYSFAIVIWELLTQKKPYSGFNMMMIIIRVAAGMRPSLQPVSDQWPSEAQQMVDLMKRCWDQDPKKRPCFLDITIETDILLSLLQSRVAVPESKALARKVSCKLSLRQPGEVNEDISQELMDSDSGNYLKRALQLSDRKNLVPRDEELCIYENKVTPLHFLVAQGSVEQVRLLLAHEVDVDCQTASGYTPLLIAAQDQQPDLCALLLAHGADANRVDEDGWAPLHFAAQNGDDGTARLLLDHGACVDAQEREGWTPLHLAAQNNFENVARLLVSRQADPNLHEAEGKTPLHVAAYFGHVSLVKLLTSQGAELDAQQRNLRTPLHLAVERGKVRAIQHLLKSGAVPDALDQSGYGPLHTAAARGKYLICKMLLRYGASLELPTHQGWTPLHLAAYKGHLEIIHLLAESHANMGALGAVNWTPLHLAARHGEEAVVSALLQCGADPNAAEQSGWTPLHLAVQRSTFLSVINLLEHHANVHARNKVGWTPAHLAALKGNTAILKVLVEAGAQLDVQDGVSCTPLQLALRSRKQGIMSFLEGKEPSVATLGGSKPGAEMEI
Description: Selectivity interaction (Ambit KINOMEscan and KiNATiv profiling in Jurkat cells) EUB0000090b ANKK1. Format: cell-based. Particulars: at 1 µM.

The target in test [2] is T2, Tyrosine-protein kinase receptor TYRO3 (Homo sapiens) (UniProt Q06418).
T2 sequence (whole entry): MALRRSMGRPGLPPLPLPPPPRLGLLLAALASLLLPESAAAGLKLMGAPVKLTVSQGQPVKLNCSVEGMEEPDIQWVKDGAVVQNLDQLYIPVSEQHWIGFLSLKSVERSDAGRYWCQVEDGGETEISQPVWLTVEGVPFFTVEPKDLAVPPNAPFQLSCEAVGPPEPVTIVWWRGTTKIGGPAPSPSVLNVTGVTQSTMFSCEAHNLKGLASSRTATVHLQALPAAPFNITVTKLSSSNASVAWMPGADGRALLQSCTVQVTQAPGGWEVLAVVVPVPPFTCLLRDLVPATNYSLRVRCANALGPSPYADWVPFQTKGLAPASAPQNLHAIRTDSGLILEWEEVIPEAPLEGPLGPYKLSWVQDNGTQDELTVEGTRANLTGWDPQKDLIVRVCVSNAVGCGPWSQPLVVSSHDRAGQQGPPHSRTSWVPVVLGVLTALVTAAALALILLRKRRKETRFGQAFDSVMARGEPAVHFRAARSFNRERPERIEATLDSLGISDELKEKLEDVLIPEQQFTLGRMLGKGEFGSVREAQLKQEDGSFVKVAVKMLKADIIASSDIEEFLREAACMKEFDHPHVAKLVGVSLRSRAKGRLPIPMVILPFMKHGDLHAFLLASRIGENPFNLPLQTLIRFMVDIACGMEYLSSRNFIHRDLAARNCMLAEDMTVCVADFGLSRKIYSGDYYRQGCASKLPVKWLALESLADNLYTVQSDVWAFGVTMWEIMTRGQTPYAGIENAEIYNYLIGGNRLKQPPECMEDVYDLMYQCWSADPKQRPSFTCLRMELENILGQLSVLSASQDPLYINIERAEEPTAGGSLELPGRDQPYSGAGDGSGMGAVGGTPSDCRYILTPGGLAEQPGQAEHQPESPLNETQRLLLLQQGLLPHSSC
Description: Selectivity interaction (KinomeScan (DiscoverX)) EUB0000695a TYRO3. Particulars: at 100 nM.

The target of test [3] is T3, Serine/threonine-protein kinase Nek9 (Homo sapiens) (UniProt Q8TD19).
T3 sequence (whole entry): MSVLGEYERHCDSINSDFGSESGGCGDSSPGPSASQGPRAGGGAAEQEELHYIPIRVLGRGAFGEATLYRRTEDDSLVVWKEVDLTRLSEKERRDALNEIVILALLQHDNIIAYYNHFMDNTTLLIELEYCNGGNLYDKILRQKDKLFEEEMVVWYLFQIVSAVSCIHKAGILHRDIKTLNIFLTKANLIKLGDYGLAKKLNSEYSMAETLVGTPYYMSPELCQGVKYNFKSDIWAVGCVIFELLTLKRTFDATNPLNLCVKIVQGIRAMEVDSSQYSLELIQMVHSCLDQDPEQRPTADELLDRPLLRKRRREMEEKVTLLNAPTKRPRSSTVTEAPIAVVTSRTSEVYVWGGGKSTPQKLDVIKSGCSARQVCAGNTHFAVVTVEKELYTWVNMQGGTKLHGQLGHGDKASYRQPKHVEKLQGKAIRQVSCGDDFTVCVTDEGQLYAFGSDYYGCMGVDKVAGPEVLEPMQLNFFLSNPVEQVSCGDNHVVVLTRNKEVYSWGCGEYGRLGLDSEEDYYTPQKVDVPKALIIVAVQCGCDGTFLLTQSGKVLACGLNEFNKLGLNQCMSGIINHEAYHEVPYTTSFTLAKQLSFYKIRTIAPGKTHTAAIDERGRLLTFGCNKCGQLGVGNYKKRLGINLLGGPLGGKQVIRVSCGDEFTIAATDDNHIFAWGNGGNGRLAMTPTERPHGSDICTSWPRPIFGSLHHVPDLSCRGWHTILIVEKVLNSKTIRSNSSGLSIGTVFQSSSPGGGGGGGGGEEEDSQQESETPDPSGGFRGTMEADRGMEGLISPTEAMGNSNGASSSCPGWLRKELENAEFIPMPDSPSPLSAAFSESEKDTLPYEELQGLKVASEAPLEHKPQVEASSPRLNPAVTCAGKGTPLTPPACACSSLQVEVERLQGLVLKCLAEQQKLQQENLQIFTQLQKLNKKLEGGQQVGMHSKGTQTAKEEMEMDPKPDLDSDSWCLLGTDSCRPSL
Description: Selectivity interaction (Kinase panel (Z-LYTE Assay)) EUB0001632a NEK9. Particulars: at 10 µM.

Test [4] addresses T4, Dual specificity mitogen-activated protein kinase kinase 3 (Homo sapiens) (UniProt P46734).
T4 sequence (whole entry): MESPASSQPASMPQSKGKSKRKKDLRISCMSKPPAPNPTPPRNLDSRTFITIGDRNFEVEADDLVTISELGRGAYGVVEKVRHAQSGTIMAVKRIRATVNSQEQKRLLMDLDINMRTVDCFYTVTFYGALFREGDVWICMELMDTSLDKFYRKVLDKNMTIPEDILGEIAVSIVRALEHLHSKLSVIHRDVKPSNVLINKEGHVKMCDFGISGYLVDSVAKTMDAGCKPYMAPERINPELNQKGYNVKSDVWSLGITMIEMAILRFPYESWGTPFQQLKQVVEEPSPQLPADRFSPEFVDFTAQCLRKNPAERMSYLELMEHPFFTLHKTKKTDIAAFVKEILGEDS
Description: Selectivity interaction (KinomeScan (DiscoverX)) EUB0000229b MAP2K3. Particulars: at 10 µM.

Here are results for four compounds from ChEMBL document CHEMBL5465560, “Selectivity Literature for EUbOPEN Chemogenomic Library” (2024).

SMILES strings stand for the structures.

Turning to `CN(C)C/C=C/C(=O)Nc1ccc(C(=O)N2CCCC(Nc3ncc(Cl)c(-c4c[nH]c5ccccc45)n3)C2)cc1` (centres undefined), the % of control in test [1] amounted to 91%. Consider `Cc1cc(F)c(C(=O)Nc2cccc(-c3nncn3C(C)C)n2)cc1-n1cnc(C2CC2)c1`, for which, in test [2], the % of control was found to be 86%. In the case of `Cn1cc(-n2cnc3c(NCc4nc5cc(Cl)c(Cl)cc5[nH]4)nc(N4CCOCC4)nc32)cn1`, the % of control in test [3] is -0.159%. Consider `COc1cc(N(C)c2ccnc3ccc(C(F)(F)F)cc23)cc(OC)c1OC`, for which, in test [4], the % binding is 72%.
